Assay results taken from patent EP2818472A1, “Imidazo[4,5-c]pyridine and pyrrolo[3,2-c]pyridine compounds as G-protein-coupled receptor kinase 5 (GRK5) modulators” (Max-Planck-Gesellschaft zur Förderung der Wissenschaften …, priority 2013, dated 2014).

What follows are compounds tested on beta-TC6 cells (assay: Insulin HTRF assay (relative activity Ar) in beta-TC6 cells). Details: Mus musculus, Beta-TC6, 4 h, insulin HTRF, supernatant of beta-TC6 cells, incubation with test compound at 37°C for 2, 3, 4h; read-out: Ar (relative activity).
Assay type: cell-based, mouse
Text: For further screening of compounds derived from compounds described above for their ability to regulate insulin release an insulin HTRF® (Homogeneous Time-Resolved Fluorescence; Cisbio International, France) was used. This assay is based on two antibodies against insulin binding to different epitopes of insulin. One of these antibodies is coupled to Europium (Ab-Eu-Cryptate) and the other one to the fluorophore XL665 (Ab-XL665). If the insulin is secreted into the supernatant of cell culture, both antibodies can bind to insulin and come therefore into close proximity, which allows upon excitation that energy transfer between (FRET) the long-life fluorescent donor Europium (cryptate) and the acceptors XL665. FRET increases proportionally with insulin concentration.
The automated assay protocol is as follows: • On day 1, 15k beta-TC6 cells per well were seeded for 24 or 48 h in 50 µL complete medium. On day 2 or respective on day 3, the medium is removed and cells are washed with 60 µL 1xPBS and 20 µL induction buffer is added using BioTek washer. Subsequently, 10 µL Sunitininb (5 -µM f.c.) or the test compound in induction buffer; 0.5% f.c. DMSO (CyBi-well) is transferred to the cells. The cells are then incubated at 37°C for 2, 3, 4h.
First 10 µL supernatant is transferred from the cell plates in HTRF plates (CyBi-well). 10 µL of 0, 1, 2, and 4 ng/ml insulin standard controls in assay medium is used as a control. To each well 10 µL of combined 1:25 Ab-XL665 (Acc) and 1:20 Ab-Eu-Cryptate (WellMate) are added and incubated for 120 min at RT in the dark. Finally HTRF is measured on ViewLux ultra high throughput microplate imager (PerkinElmer).
The evaluation software DataFactoty derives relative activities Ar according to the following equation: Ar = (V-R(0%control))/(R(100%control) -R0%control)) × 100 [formula]
The activity of the compounds was classified according to their Ar (relative activity) into the following ranges: […]

Row | Structure (SMILES) | Emax
1 | COc1ccc(Nc2cc3[nH]c(-c4ccc(C(=O)N(C)C)cc4)cc3cn2)c(OC)c1 [Compound 20, 4-[6-(2,4-dimethoxyanilino)-1H-pyrrolo[3,2-c]pyridin-2-yl]-N,N-dimethyl-benzamide] | 50 to 100%
2 | COc1ccc(Nc2cc3[nH]c(-c4ccc(C(=O)N(C)C)cc4)cc3cn2)cc1OC [Compound 21, 4-[6-(3,4-dimethoxyanilino)-1H-pyrrolo[3,2-c]pyridin-2-yl]-N,N-dimethyl-benzamide] | 50 to 100%
3 | CN(C)C(=O)c1ccc(-c2cc3cnc(Nc4cccnc4)cc3[nH]2)cc1 [Compound 22, N,N-dimethyl-4-[6-(3-pyridylamino)-1H-pyrrolo[3,2-c]pyridin-2-yl]benzamide] | > 100%
4 | CN(C)C(=O)c1ccc(-c2cc3cnc(Nc4cccc(Cl)c4)cc3[nH]2)cc1 [Compound 23, 4-[6-(3-chloroanilino)-1H-pyrrolo[3,2-c]pyridin-2-yl]-N,N-dimethyl-benzamide] | 30 to 50%
5 | CN(C)C(=O)c1ccc(-c2cc3cnc(Nc4ccccc4)cc3[nH]2)cc1 [Compound 24, 4-(6-anilino-1 H-pyrrolo[3,2-c]pyridin-2-yl)-N,N-dimethyl-benzamide] | 50 to 100%
6 | CN(C)C(=O)c1ccc(-c2cc3cnc(Nc4ccc(Oc5ccccc5)cc4)cc3[nH]2)cc1 [Compound 25, N,N-dimethyl-4-[6-(4-phenoxyanilino)-1H-pyrrolo[3,2-c]pyridin-2-yl]benzamide] | 0 to 30%
7 | CN1CCN(c2ccc(Nc3cc4[nH]c(-c5ccc(C(=O)N(C)C)cc5)cc4cn3)cc2)CC1 [Compound 26, N,N-dimethyl-4-[6-[4-(4-methylpiperazin-1-yl)anilino]-1H-pyrrolo[3,2-c]pyridin-2-yl]benzamide] | 50 to 100%
8 | CN(C)C(=O)c1ccc(-c2cc3cnc(Nc4cccc(N(C)C)c4)cc3[nH]2)cc1 [Compound 27, 4-[6-[3-(dimethylamino)anilino]-1H-pyrrolo[3,2-c]pyridin-2-yl]-N,N-dimethyl-benzamide] | 50 to 100%
9 | Cc1cccc(Nc2cc3[nH]c(-c4ccc(C(=O)N(C)C)cc4)cc3cn2)c1 [Compound 28, N,N-dimethyl-4-[6-(3-methylanilino)-1H-pyrrolo[3,2-c]pyridin-2-yl]benzamide] | 50 to 100%
10 | COC(=O)c1ccc(Nc2cc3[nH]c(-c4ccc(C(=O)N(C)C)cc4)cc3cn2)cc1 [Compound 29, methyl 4-[[2-[4-(dimethylcarbamoyl)phenyl]-1H-pyrrolo[3,2-c]pyridin-6-yl]amino]benzoate] | 30 to 50%
11 | CN(C)C(=O)c1ccc(-c2cc3cnc(Nc4cccc(S(C)(=O)=O)c4)cc3[nH]2)cc1 [Compound 30, N,N-dimethyl-4-[6-(3-methylsulfonylanilino)-1H-pyrrolo[3,2-c]pyridin-2-yl]benzamide] | 50 to 100%
12 | CN(C)C(=O)c1ccc(-c2cc3cnc(Nc4cccc(O)c4)cc3[nH]2)cc1 [Compound 31, 4-[6-(3-hydroxyanilino)-1H-pyrrolo[3,2-c]pyridin-2-yl]-N,N-dimethyl-benzamide] | > 100%
13 | CN(C)C(=O)c1ccc(-c2cc3cnc(Nc4ccc(C(F)(F)F)cc4)cc3[nH]2)cc1 [Compound 32, N,N-dimethyl-4-[6-[4-(trifluoromethyl)anilino]-1H-pyrrolo[3,2-c]pyridin-2-yl]benzamide] | 30 to 50%
14 | CN(C)C(=O)c1ccc(-c2cc3cnc(Nc4cccc(OC(F)(F)F)c4)cc3[nH]2)cc1 [Compound 33, N,N-dimethyl-4-[6-[3-(trifluoromethoxy)anilino]-1H-pyrrolo[3,2-c]pyridin-2-yl]benzamide] | 30 to 50%
15 | CN(C)C(=O)c1ccc(-c2cc3cnc(Nc4ccc(OC(F)(F)F)cc4)cc3[nH]2)cc1 [Compound 34, N,N-dimethyl-4-[6-[4-(trifluoromethoxy)anilino]-1H-pyrrolo[3,2-c]pyridin-2-yl]benzamide] | 0 to 30%
16 | CN(C)C(=O)c1ccc(-c2cc3cnc(Nc4cccc(Oc5ccccc5)c4)cc3[nH]2)cc1 [Compound 35, N,N-dimethyl-4-[6-(3-phenoxyanilino)-1H-pyrrolo[3,2-c]pyridin-2-yl]benzamide] | 0 to 30%
17 | CC(C)c1cccc(Nc2cc3[nH]c(-c4ccc(C(=O)N(C)C)cc4)cc3cn2)c1 [Compound 36, 4-[6-(3-isopropylanilino)-1H-pyrrolo[3,2-c]pyridin-2-yl]-N,N-dimethyl-benzamide] | 0 to 30%
18 | CN(C)C(=O)c1ccc(-c2cc3cnc(Nc4ccccc4Cl)cc3[nH]2)cc1 [Compound 37, 4-[6-(2-chloroanilino)-1H-pyrrolo[3,2-c]pyridin-2-yl]-N,N-dimethyl-benzamide] | 30 to 50%
19 | CC(C)c1ccc(Nc2cc3[nH]c(-c4ccc(C(=O)N(C)C)cc4)cc3cn2)cc1 [Compound 38, 4-[6-(4-isopropylanilino)-1H-pyrrolo[3,2-c]pyridin-2-yl]-N,N-dimethyl-benzamide] | 0 to 30%
20 | CN(C)C(=O)c1ccc(-c2cc3cnc(Nc4cccc(NS(C)(=O)=O)c4)cc3[nH]2)cc1 [Compound 39, 4-[6-[3-(methanesulfonamido)anilino]-1H-pyrrolo[3,2-c]pyridin-2-yl]-N,N-dimethyl-benzamide] | 50 to 100%
21 | CN(C)C(=O)c1ccc(Nc2cc3[nH]c(-c4ccc(C(=O)N(C)C)cc4)cc3cn2)cc1 [Compound 40, 4-[6-[4-(dimethylcarbamoyl)anilino]-1H-pyrrolo[3,2-c]pyridin-2-yl]-N,N-dimethyl-benzamide] | > 100%
22 | CC(=O)Nc1cccc(Nc2cc3[nH]c(-c4ccc(C(=O)N(C)C)cc4)cc3cn2)c1 [Compound 41, 4-[6-(3-acetamidoanilino)-1H-pyrrolo[3,2-c]pyridin-2-yl]-N,N-dimethyl-benzamide] | > 100%
23 | CC(=O)c1cccc(Nc2cc3[nH]c(-c4ccc(C(=O)N(C)C)cc4)cc3cn2)c1 [Compound 42, 4-[6-(3-acetylanilino)-1H-pyrrolo[3,2-c]pyridin-2-yl]-N,N-dimethyl-benzamide] | 50 to 100%
24 | CN(C)C(=O)c1ccc(-c2cc3cnc(Nc4ccc(S(C)(=O)=O)cc4)cc3[nH]2)cc1 [Compound 43, N,N-dimethyl-4-[6-(4-methylsulfonylanilino)-1H-pyrrolo[3,2-c]pyridin-2-yl]benzamide] | 50 to 100%
25 | CC(C)Oc1cccc(Nc2cc3[nH]c(-c4ccc(C(=O)N(C)C)cc4)cc3cn2)c1 [Compound 44, 4-[6-(3-isopropoxyanilino)-1H-pyrrolo[3,2-c]pyridin-2-yl]-N,N-dimethyl-benzamide] | 30 to 50%
26 | COc1cccc(Nc2cc3c(cn2)cc(-c2ccc(C(=O)N(C)C)cc2)n3C)c1 [Compound 45, 4-[6-(3-methoxyanilino)-1-methyl-pyrrolo[3,2-c]pyridin-2-yl]-N,N-dimethyl-benzamide] | 30 to 50%
27 | COc1ccc(Nc2cc3c(cn2)cc(-c2ccc(C(=O)N(C)C)cc2)n3C)cc1OC [Compound 46, 4-[6-(3,4-dimethoxyanilino)-1-methyl-pyrrolo[3,2-c]pyridin-2-yl]-N,N-dimethyl-benzamide] | 50 to 100%
28 | CN(C)C(=O)c1ccc(-c2cc3cnc(Nc4cccnc4)cc3n2C)cc1 [Compound 47, N,N-dimethyl-4-[1-methyl-6-(3-pyridylamino)pyrrolo[3,2-c]pyridin-2-yl]benzamide] | 50 to 100%
29 | CN(C)C(=O)c1ccc(-c2cc3cnc(Nc4ccccc4)cc3n2C)cc1 [Compound 48, 4-(6-anilino-1-methyl-pyrrolo[3,2-c]pyridin-2-yl)-N,N-dimethyl-benzamide] | 50 to 100%
